The values below come from patent publication US9828348B2, “Benzimidazole derivatives and use thereof” (priority 2013, dated 2017).

Molecules are shown by their SMILES.

For orientation: IC50 means the concentration at which inhibition is half-maximal.

The target in the first assay is human Nav1.7 (Homo sapiens (Human), UniProt Q15858). Kind of assay: FLIPR or FLIPR TETRA sodium dye assay with KCl and test article pre-incubation. In kind it is cell-based. Conditions: read-out: Nav1.7 Activity (μM) FLIPR assay IC50 (μM) ± SEM.
human Nav1.7, sequence (Q15858 with tags, fused parts or gaps limits assumed): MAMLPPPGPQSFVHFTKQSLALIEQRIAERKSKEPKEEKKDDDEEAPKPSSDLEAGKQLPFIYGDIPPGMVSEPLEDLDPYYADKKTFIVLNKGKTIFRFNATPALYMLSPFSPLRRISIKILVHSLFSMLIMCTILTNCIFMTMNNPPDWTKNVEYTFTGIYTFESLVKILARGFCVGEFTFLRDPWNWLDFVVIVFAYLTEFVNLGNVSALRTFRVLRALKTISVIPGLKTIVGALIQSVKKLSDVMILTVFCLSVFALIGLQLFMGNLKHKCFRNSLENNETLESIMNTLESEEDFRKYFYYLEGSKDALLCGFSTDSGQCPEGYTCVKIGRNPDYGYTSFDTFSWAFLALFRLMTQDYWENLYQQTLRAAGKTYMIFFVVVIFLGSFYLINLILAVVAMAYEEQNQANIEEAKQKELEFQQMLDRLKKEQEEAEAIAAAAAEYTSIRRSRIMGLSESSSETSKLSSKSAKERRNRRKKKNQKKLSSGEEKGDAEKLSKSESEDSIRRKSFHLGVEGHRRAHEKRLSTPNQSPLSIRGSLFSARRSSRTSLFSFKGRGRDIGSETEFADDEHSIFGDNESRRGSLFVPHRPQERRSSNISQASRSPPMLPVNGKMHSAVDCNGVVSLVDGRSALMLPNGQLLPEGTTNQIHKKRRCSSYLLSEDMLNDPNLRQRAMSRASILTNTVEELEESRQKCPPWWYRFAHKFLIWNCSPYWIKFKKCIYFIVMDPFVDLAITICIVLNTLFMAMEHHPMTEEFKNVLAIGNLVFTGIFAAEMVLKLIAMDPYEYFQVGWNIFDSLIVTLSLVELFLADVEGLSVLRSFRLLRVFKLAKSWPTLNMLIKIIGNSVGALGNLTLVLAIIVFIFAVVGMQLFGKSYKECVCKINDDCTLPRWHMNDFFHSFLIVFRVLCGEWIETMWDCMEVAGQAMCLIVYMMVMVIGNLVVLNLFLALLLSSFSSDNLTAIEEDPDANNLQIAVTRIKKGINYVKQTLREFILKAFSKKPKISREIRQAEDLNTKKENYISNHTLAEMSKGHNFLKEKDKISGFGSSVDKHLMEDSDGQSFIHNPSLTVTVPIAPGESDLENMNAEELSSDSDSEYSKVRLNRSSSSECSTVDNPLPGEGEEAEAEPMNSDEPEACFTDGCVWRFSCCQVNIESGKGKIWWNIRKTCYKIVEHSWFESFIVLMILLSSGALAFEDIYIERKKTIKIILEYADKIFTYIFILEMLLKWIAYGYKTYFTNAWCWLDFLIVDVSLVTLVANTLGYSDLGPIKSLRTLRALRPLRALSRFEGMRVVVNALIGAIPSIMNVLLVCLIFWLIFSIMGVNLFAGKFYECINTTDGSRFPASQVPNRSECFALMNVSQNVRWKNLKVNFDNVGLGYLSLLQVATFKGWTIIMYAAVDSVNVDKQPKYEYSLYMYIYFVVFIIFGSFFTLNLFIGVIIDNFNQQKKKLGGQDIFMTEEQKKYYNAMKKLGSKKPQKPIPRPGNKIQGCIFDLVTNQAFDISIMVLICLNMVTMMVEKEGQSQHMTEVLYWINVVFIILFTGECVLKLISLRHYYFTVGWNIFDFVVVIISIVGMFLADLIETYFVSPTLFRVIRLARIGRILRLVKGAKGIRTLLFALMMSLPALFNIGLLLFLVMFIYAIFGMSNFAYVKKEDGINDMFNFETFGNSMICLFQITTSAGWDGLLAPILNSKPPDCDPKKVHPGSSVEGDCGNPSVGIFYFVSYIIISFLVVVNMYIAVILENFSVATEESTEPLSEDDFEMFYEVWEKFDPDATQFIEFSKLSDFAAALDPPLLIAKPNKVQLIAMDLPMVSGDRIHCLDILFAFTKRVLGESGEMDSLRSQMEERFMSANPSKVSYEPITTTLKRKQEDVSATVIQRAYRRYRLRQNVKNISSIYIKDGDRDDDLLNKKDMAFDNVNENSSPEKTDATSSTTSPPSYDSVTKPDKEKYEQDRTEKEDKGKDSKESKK
Take `Fc1ccc(Oc2ccc(-n3c(-c4c[nH]cn4)nc4ccccc43)cc2)cc1` [Compound 11, 1-(4-(4-fluorophenoxy)phenyl)-2-(1H-imidazol-4-yl)-1H-benzo[d]imidazole]: the IC50 was 0.102 ± 0.022 µM.
The same measure, in the same setting: in the case of `Cc1nnc(Cc2nc3ccccc3n2-c2ccc(Oc3ccc(F)cc3)cc2)[nH]1` [Compound 16, 1-(4-(4-fluorophenoxy)phenyl)-2-((5-methyl-4H-1,2,4-triazol-3-yl)methyl)-1H-benzo[d]imidazole] it was 0.957 ± 0.092 µM.

Still in this assay, the particulars now being: recombinant human Nav1.7 in HEK293 cells; CoroNa Green sodium dye, KCl pre-incubation; veratridine and scorpion venom agonists; read-out: Nav1.7 Activity (μM) FLIPR assay IC50 (μM) ± SEM.
For `Fc1ccc(Oc2ccc(-n3c(C4CCOCC4)nc4ccccc43)cc2)cc1` [Compound 9, 1-(4-(4-fluorophenoxy)phenyl)-2-(tetrahydro-2H-pyran-4-yl)-1H-benzo[d]imidazole], the IC50 came out at 0.63 ± 0.05 µM.
As to `Cn1cc(Cl)c(-c2nc3ccccc3n2-c2ccc(Oc3ccc(F)cc3)cc2)n1` [Compound 10, 2-(4-chloro-1-methyl-1H-pyrazol-3-yl)-1-(4-(4-fluorophenoxy)phenyl)-1H-benzo[d]imidazole], the IC50 stood at 0.313 ± 0.032 µM.
On the same count and under the same terms, with `O=C1CC[C@@H](c2nc3ccccc3n2-c2ccc(Oc3ccc(F)cc3)cc2)N1` [Compound 14, (S)-5-(1-(4-(4-fluorophenoxy)-phenyl)-1H-benzo[d]imidazol-2-yl)pyrrolidin-2-one] the figure was 0.571 ± 0.07 µM; with `Fc1ccc(Oc2ccc(-n3c(Cc4nnn[nH]4)nc4ccccc43)cc2)cc1` [Compound 15, 2-((1H-tetrazol-5-yl)methyl)-1-(4-(4-fluorophenoxy)phenyl)-1H-benzo[d]imidazole], greater than 20 µM; with `Fc1ccc(Oc2ccc(-n3c(CCN4CCCCC4)nc4ccccc43)cc2)cc1` [Compound 17, 1-(4-(4-fluorophenoxy)phenyl)-2-(2-(piperidin-1-yl)ethyl)-1H-benzo[d]imidazole], 0.081 ± 0.009 µM.
Still for that read-out and setting: with `NC(=O)CN1CCC(c2nc3ccccc3n2-c2ccc(Oc3ccc(F)cc3)cc2)CC1` [Compound 23, 2-(4-(1-(4-(4-fluorophenoxy)phenyl)-1H-benzo[d]imidazol-2-yl)piperidin-1-yl)acetamide] the figure was 1.49 ± 0.225 µM; with `CCN(CC)C(=O)CN1CCC(c2nc3ccccc3n2-c2ccc(Oc3ccc(F)cc3)cc2)CC1` [Compound 24, N,N-diethyl-2-(4-(1-(4-(4-fluorophenoxy)phenyl)-1H-benzo[d]imidazol-2-yl)piperidin-1-yl)acetamide], 0.516 ± 0.029 µM.
On the same count and under the same terms, in the case of `NC(=O)CN1CCC[C@H]1c1nc2ccccc2n1-c1ccc(Oc2ccc(F)cc2)cc1` [Compound 25, (S)-2-(2-(1-(4-(4-fluorophenoxy)phenyl)-1H-benzo[d]imidazol-2-yl)pyrrolidin-1-yl)acetamide] it was 1.22 ± 0.035 µM.
